Consider eleven compounds from ChEMBL document CHEMBL1201862, “PubChem BioAssay data set” (2004).

Some test systems named below: A549; CAKI-1; HCT-116; HL-60; HOP-92; HT-29; IGROV-1; M14; NCI-H522; OVCAR-3; RXF 393; SF-268; SF-539; SK-OV-3; SNB-75; U-251; UACC-62; UO-31.
Common to all, as to test: growth of human tumour cells (NCI), 48 h

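Interpolation was linear, between the two tested concentrations surrounding the appropriate level; five concentrations were tested over 48 hours in 96-well plates. At the GI50, growth is halved.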 Active and inactive are the calls of the source. Rule as the data show it: active = GI50 up to about 1.1 µM and inactive = higher. Some results are limits rather than exact numbers.

On to `CC(=O)/C(=N\O)C(=O)NCCc1ccccc1`, for which the GI50 in the experiment with A549 was 98.6 µM (inactive); in the experiment on CAKI-1 it was > 100 µM (inactive); in the experiment with HCT-116 it was 46 µM (inactive); in the experiment with HL-60, 73.8 µM (inactive); with HOP-92, > 100 µM (inactive); with HT-29 it was 83.2 µM (inactive). In addition, the GI50 with IGROV-1 is > 100 µM (inactive); with M14, > 100 µM (inactive); with NCI-H522 it was > 100 µM (inactive); in the experiment on OVCAR-3, > 100 µM (inactive); with RXF 393 it was 64.7 µM (inactive); in the experiment on SF-268 it was > 100 µM (inactive). Moreover, the GI50 in the experiment on SF-539 is > 100 µM (inactive); in the experiment on SK-OV-3, > 100 µM (inactive); in the experiment on SNB-75 it was > 100 µM (inactive); in the experiment with U-251, 63.5 µM (inactive); with UACC-62, > 100 µM (inactive); in the experiment on UO-31, > 100 µM (inactive).

In the case of `C[N+](C)(Cc1ccc(NC(=O)CCCC(=O)ON2C(=O)CCC2=O)cc1)c1ccccc1`, the GI50 with A549, in the experiment with CAKI-1, in the experiment with HCT-116, with HL-60, in the experiment on HOP-92 and in the experiment on HT-29 was < 0.01 µM (active) each time. Further, the GI50 with IGROV-1 was < 0.01 µM (active); in the experiment with M14, < 0.01 µM (active); with NCI-H522 it was < 0.01 µM (active); with OVCAR-3, < 0.01 µM (active); in the experiment on RXF 393, > 1 µM (active); with SF-268 it was < 0.01 µM (active). Moreover, the GI50 in the experiment with SF-539, in the experiment on SK-OV-3, with SNB-75, in the experiment on U-251, in the experiment with UACC-62 and with UO-31 was < 0.01 µM (active) in each case.

Take `CC(C)(CN1C(=O)C(Cl)=C(Cl)C1=O)CN1C(=O)C(Cl)=C(Cl)C1=O`: the GI50 was 35.5 µM (inactive) in the experiment on A549; 8.15 µM (inactive) with CAKI-1; 11.5 µM (inactive) in the experiment on HCT-116; 0.552 µM (active) in the experiment with HL-60; 7.64 µM (inactive) in the experiment with HOP-92; 13.2 µM (inactive) with HT-29. For the same compound, the GI50 in the experiment with IGROV-1 is 18.9 µM (inactive); with M14, 16.6 µM (inactive); with NCI-H522, 1.62 µM (inactive); in the experiment on OVCAR-3, 8.02 µM (inactive); in the experiment with RXF 393, 6 µM (inactive); with SF-268, 19.1 µM (inactive). Also, the GI50 is 20.1 µM (inactive) in the experiment on SF-539; 33.3 µM (inactive) in the experiment with SK-OV-3; 22.2 µM (inactive) in the experiment on SNB-75; 18.1 µM (inactive) in the experiment with U-251; 14.1 µM (inactive) in the experiment with UACC-62; 31.6 µM (inactive) with UO-31.

Consider `CCOC(=O)CCCO`, for which the GI50 in the experiment on A549 was > 100 µM (inactive); in the experiment on HCT-116, > 10 µM (inactive); in the experiment with HL-60, > 100 µM (inactive); in the experiment on HOP-92 it was > 100 µM (inactive); in the experiment on HT-29, > 100 µM (inactive); in the experiment on IGROV-1, > 100 µM (inactive). Also, the GI50 in the experiment with M14, in the experiment with NCI-H522, with OVCAR-3, in the experiment on RXF 393, with SF-268 and in the experiment with SF-539 was > 100 µM (inactive) each time. Further, the GI50 is > 100 µM (inactive) in the experiment on SK-OV-3; 71.3 µM (inactive) in the experiment on SNB-75; > 100 µM (inactive) with U-251; > 100 µM (inactive) in the experiment with UACC-62; > 100 µM (inactive) in the experiment on UO-31.

On to `Cc1cc(Br)cc(C)c1NC(=O)C(=O)C(C(=O)c1ccc2ccccc2c1)C1OC(=O)c2ccccc21` (centres undefined), for which the GI50 with A549 was 22.4 µM (inactive); in the experiment on CAKI-1 it was 15.7 µM (inactive); in the experiment on HCT-116, 8.91 µM (inactive); with HL-60, 4.45 µM (inactive); in the experiment on HOP-92, 1.58 µM (inactive); with HT-29 it was 18.2 µM (inactive). The GI50 with IGROV-1 is 18.2 µM (inactive); in the experiment on M14, 15.6 µM (inactive); in the experiment with NCI-H522, 8.65 µM (inactive); in the experiment on OVCAR-3 it was 19.5 µM (inactive); in the experiment with RXF 393, 5.93 µM (inactive); in the experiment on SF-268, 7.98 µM (inactive). Also, the GI50 in the experiment on SF-539 is 2.69 µM (inactive); in the experiment on SK-OV-3, 78.5 µM (inactive); in the experiment with SNB-75, 14.3 µM (inactive); with U-251 it was 5.78 µM (inactive); in the experiment with UACC-62 it was 12.9 µM (inactive); in the experiment with UO-31, 15.8 µM (inactive).

For the compound `COc1cc([C@@H]2c3cc4c(cc3[C@@H](OC(=O)c3ccc(N)cc3)C3COC(=O)[C@@H]32)OCO4)cc(OC)c1O` (some centres undefined), the GI50 with A549 is 5.02 µM (inactive); in the experiment on CAKI-1, 8.47 µM (inactive); with HCT-116 it was 4.45 µM (inactive); in the experiment with HL-60, 3.1 µM (inactive); with HOP-92, 3.77 µM (inactive); with HT-29, 3.21 µM (inactive). Besides, the GI50 with IGROV-1 is 2.8 µM (inactive); with M14, 16.8 µM (inactive); in the experiment on NCI-H522 it was 2.07 µM (inactive); with OVCAR-3 it was 12.9 µM (inactive); in the experiment with RXF 393, 2.92 µM (inactive); in the experiment on SF-268, 9.59 µM (inactive). In addition, the GI50 with SF-539 was 2.54 µM (inactive); in the experiment on SK-OV-3 it was 3.2 µM (inactive); with SNB-75, 3.21 µM (inactive); in the experiment with U-251 it was 4.45 µM (inactive); in the experiment on UACC-62, 4.91 µM (inactive); in the experiment with UO-31 it was 10.2 µM (inactive).

For `COc1cc2ccnc(-c3n[nH]c4cc(OC)c(OC)cc34)c2cc1OC`, the GI50 with A549, in the experiment with CAKI-1, with HCT-116, in the experiment with HL-60, in the experiment on HOP-92 and with HT-29 was > 100 µM (inactive) throughout. For the same compound, the GI50 in the experiment on IGROV-1 was > 100 µM (inactive); with M14, > 100 µM (inactive); with NCI-H522, 22 µM (inactive); in the experiment with OVCAR-3, > 100 µM (inactive); in the experiment with SF-268, 62.4 µM (inactive); in the experiment with SF-539, > 100 µM (inactive). For the same compound, the GI50 in the experiment on SK-OV-3, with SNB-75, in the experiment with U-251, in the experiment on UACC-62 and in the experiment on UO-31 was > 100 µM (inactive) each time.

In the case of `CCN1C(=O)C(N=[N+]=[N-])(c2ccccc2)C(=O)c2ccccc21` (centres undefined), the GI50 is 55.8 µM (inactive) in the experiment on A549; > 100 µM (inactive) in the experiment on CAKI-1; 61.8 µM (inactive) in the experiment on HCT-116; 21.6 µM (inactive) in the experiment with HL-60; 31.4 µM (inactive) in the experiment with HOP-92; > 100 µM (inactive) in the experiment on HT-29. Moreover, the GI50 was > 100 µM (inactive) in the experiment with IGROV-1; 41.9 µM (inactive) with M14; > 100 µM (inactive) with NCI-H522; 56.8 µM (inactive) in the experiment on OVCAR-3; 99.1 µM (inactive) in the experiment on RXF 393; 83.2 µM (inactive) in the experiment with SF-268. Moreover, the GI50 with SF-539 is > 100 µM (inactive); in the experiment on SK-OV-3, > 100 µM (inactive); with SNB-75 it was 83 µM (inactive); with U-251, > 100 µM (inactive); in the experiment on UACC-62, 62.8 µM (inactive); in the experiment with UO-31 it was 43.7 µM (inactive).

For the compound `O=C(c1nc2ccccc2nc1O)C(O)c1ccco1` (centres undefined), the GI50 in the experiment on A549, with HCT-116, in the experiment on HL-60, in the experiment with HOP-92, in the experiment on HT-29 and in the experiment on IGROV-1 was > 100 µM (inactive) in each case. For the same compound, the GI50 is > 100 µM (inactive) with M14; 25.9 µM (inactive) with NCI-H522; > 100 µM (inactive) in the experiment with OVCAR-3; > 100 µM (inactive) in the experiment on RXF 393; > 100 µM (inactive) with SF-268; > 100 µM (inactive) in the experiment on SF-539. For the same compound, the GI50 was > 100 µM (inactive) in the experiment with SK-OV-3; 45.8 µM (inactive) with SNB-75; > 100 µM (inactive) in the experiment on U-251; 61.5 µM (inactive) with UACC-62; 72.3 µM (inactive) in the experiment on UO-31.

On to `COc1ccc(CN2C(=O)C(Cc3cc(OC)c(OC)c(C)c3OC)N(C(=O)OC(C)C)C(=O)/C2=C/c2cc(OC)c(OC)c(C)c2OC)cc1` (centres undefined), for which the GI50 with A549 is > 100 µM (inactive); in the experiment on CAKI-1 it was > 100 µM (inactive); in the experiment on HCT-116, 66.2 µM (inactive); in the experiment on HL-60 it was 7.96 µM (inactive); in the experiment with HOP-92, > 100 µM (inactive); with HT-29, > 100 µM (inactive). The GI50 in the experiment with IGROV-1 was > 100 µM (inactive); in the experiment with M14 it was > 100 µM (inactive); in the experiment with NCI-H522, 4.4 µM (inactive); in the experiment with OVCAR-3 it was 16.1 µM (inactive); in the experiment on RXF 393, 6.9 µM (inactive); in the experiment with SF-268, > 100 µM (inactive). In addition, the GI50 is > 100 µM (inactive) in the experiment with SF-539; > 100 µM (inactive) in the experiment with SK-OV-3; 83.8 µM (inactive) with SNB-75; > 100 µM (inactive) in the experiment with U-251; > 100 µM (inactive) with UACC-62; 16.6 µM (inactive) with UO-31.

On to `C/C(CC(=O)Nc1ccc([N+](=O)[O-])cc1)=N/N=C(N)N`, for which the GI50 in the experiment with A549, in the experiment on HCT-116, in the experiment on HL-60, in the experiment on HOP-92, in the experiment with HT-29 and in the experiment on IGROV-1 was > 100 µM (inactive) throughout. The GI50 in the experiment on M14, in the experiment with NCI-H522, with OVCAR-3, in the experiment with RXF 393, in the experiment with SF-268 and in the experiment with SF-539 was > 100 µM (inactive) in each case. Also, the GI50 with SK-OV-3, in the experiment on SNB-75, with U-251, in the experiment on UACC-62 and in the experiment on UO-31 was > 100 µM (inactive) throughout.
